Key:
[1] = test system: DENV-2 16681 strain; assay: DENV-2 antiviral assay (eGFP fluorescence, Vero cells); type: cell-based, Dengue virus; conditions: DENV-2 16681 eGFP, MOI 0.5, 3 days
Protocol: The antiviral activity of all the compounds of the invention was tested against the DENV-2 16681 strain which was labeled with enhanced green fluorescent protein (eGPF). The culture medium consists of minimal essential medium supplemented with 2% of heat-inactivated fetal calf serum, 0.04% gentamycin (50 mg/mL) and 2 mM of L-glutamine. Vero cells, obtained from ECACC, were suspended in culture medium and 25 μL was added to 384-well plates (2500 cells/well), which already contain the antiviral compounds. Typically, these plates contain a 5-fold serial dilution of 9 dilution steps of the test compound at 200 times the final concentration in 100% DMSO (200 nL). […] Finally, each plate contains wells which are assigned as virus controls (containing cells and virus in the absence of compound), cell controls (containing cells in the absence of virus and compound) and medium controls (containing medium in the absence of cells, virus and compounds). To the wells assigned as medium control, 25 μL of culture medium was added instead of Vero cells. Once the cells were added to the plates, the plates were incubated for 30 minutes at room temperature to allow the cells to distribute evenly within the wells. Next, the plates were incubated in a fully humidified incubator (37° C., 5% CO2) until the next day. Then, DENV-2 strain 16681, labeled with eGFP, was added at a multiplicity of infection (MOI) of 0.5. Therefore, 15 μL of virus suspension was added to all the wells containing test compound and to the wells assigned as virus control. In parallel, 15 μL of culture medium was added to the medium and cell controls. Next, the plates were incubated for 3 days in a fully humidified incubator (37° C., 5% CO2). At the day of the read out, the eGFP fluorescence was measured using an automated fluorescence microscope at 488 nm (blue laser). Using an in-house LIMS system, inhibition dose response curves for each compound were calculated and the half maximal effective concentration (EC50) was determined. Therefore, the percent inhibition (I) for every test concentration is calculated using the following formula: I=100*(ST-SCC)/(SVC-SCC), ST, SCC and SVC are the amount of eGFP signal in the test compound, cell control and virus control wells, respectively. The EC50 represents the concentration of a compound at which the virus replication is inhibited with 50%, as measured by a 50% reduction of the eGFP fluorescent intensity compared to the virus control. The EC50 is calculated using linear interpolation (Table 1).

[2] = in vitro; conditions: African green monkey
[3] = test system: Vero cells; conditions: African green monkey
[4] = Dengue virus, DENV2, Vero, 72 h

SMILES	EC50 [1, 4] [nM]	CC50 [2] [nM]	EC50 [1] [nM]	CC50 [3] [nM]
COc1cc(NC(C(=O)N2CCc3c(C)cc(OC(F)(F)F)cc32)c2ccc(Cl)cc2OCCO)cc(-n2cncn2)c1 (racemic) [Compound 10, 2-(4-chloro-2-(2-hydroxyethoxy)phenyl)-2-((3-methoxy-5-(1H-1,2,4-triazol-1-yl)phenyl)amino)-1-(4-methyl-6-(trifluoromethoxy)indolin-1-yl)ethanone]	0.35	10000	–	–
COc1cc(NC(C(=O)N2CCc3cc(F)c(OC(F)(F)F)cc32)c2ccc(Cl)cc2OCCO)cc(-n2cncn2)c1 (racemic) [Compound 9, 2-(4-chloro-2-(2-hydroxyethoxy)phenyl)-1-(5-fluoro-6-(trifluoromethoxy)indolin-1-yl)-2-((3-methoxy-5-(1H-1,2,4-triazol-1-yl)phenyl)amino)ethanone]	1.6	3900	–	–
COc1cc(NC(C(=O)N2CCc3c(C)cc(OC(F)(F)F)cc32)c2ccc(Cl)cc2OCCCC(=O)O)cc(-n2cncn2)c1 (single isomer, unassigned) [Compound 16A]	–	11000	14	–
COc1cc(NC(C(=O)N2CCc3ccc(C(F)(F)F)cc32)c2ccc(F)cc2OCCO)cc(-n2cncn2)c1 (racemic) [Compound 1, 2-(4-fluoro-2-(2-hydroxyethoxy)phenyl)-2-((3-methoxy-5-(1H-1,2,4-triazol-1-yl)phenyl)amino)-1-(6-(trifluoromethyl)indolin-1-yl)ethanone]	3.1	12000	–	–
COc1cc(NC(C(=O)N2CCc3cc(OC)c(C(F)(F)F)cc32)c2ccc(F)cc2OCCO)cc(-n2cncn2)c1 (single isomer, unassigned) [Compound 2A]	–	12000	270	–
COc1cc(NC(C(=O)N2CCc3ccc(OC(F)(F)F)cc32)c2ccc(F)cc2OCCO)cc(-n2cncn2)c1 (racemic) [Compound 3, 2-(4-fluoro-2-(2-hydroxyethoxy)phenyl)-2-((3-methoxy-5-(1H-1,2,4-triazol-1-yl)phenyl)amino)-1-(6-(trifluoromethoxy)indolin-1-yl)ethanone]	1.9	8500	–	–
COc1cc(NC(C(=O)N2CCc3cc(OC)c(OC(F)(F)F)cc32)c2ccc(Cl)cc2OCCO)cc(-n2cncn2)c1 (single isomer, unassigned) [Compound 8B]	–	–	250	12000
COc1cc(NC(C(=O)N2CCc3ccc(OC(F)(F)F)cc32)c2ccc(Cl)cc2OCCO)cc(-n2cncn2)c1 (racemic) [Compound 6, 2-(4-chloro-2-(2-hydroxyethoxy)phenyl)-2-((3-methoxy-5-(1H-1,2,4-triazol-1-yl)phenyl)amino)-1-(6-(trifluoromethoxy)indolin-1-yl)ethanone]	0.97	3300	–	–
COc1cc(NC(C(=O)N2CCc3ccc(C(F)(F)F)cc32)c2ccc(Cl)cc2OCCCC(=O)O)cc(-n2cncn2)c1 (racemic) [Compound 11, 4-(5-chloro-2-(1-((3-methoxy-5-(1H-1,2,4-triazol-1-yl)phenyl)amino)-2-oxo-2-(6-(trifluoromethyl)indolin-1-yl)ethyl)phenoxy)butanoic acid]	0.31	15000	–	–
COc1cc(NC(C(=O)N2CCc3cc(F)c(C(F)(F)F)cc32)c2ccc(Cl)cc2OCCO)cc(-n2cncn2)c1 (racemic) [Compound 7, 2-(4-chloro-2-(2-hydroxyethoxy)phenyl)-1-(5-fluoro-6-(trifluoromethyl)indolin-1-yl)-2-((3-methoxy-5-(1H-1,2,4-triazol-1-yl)phenyl)amino)ethanone]	3	10000	–	–
COc1cc(NC(C(=O)N2CCc3cc(OC)c(C(F)(F)F)cc32)c2ccc(F)cc2OCCO)cc(-n2cncn2)c1 (racemic) [Compound 2, 2-(4-fluoro-2-(2-hydroxyethoxy)phenyl)-2-((3-methoxy-5-(1H-1,2,4-triazol-1-yl)phenyl)amino)-1-(5-methoxy-6-(trifluoromethyl)indolin-1-yl)ethanone]	2.8	13000	–	–
COc1cc(NC(C(=O)N2CCc3ccc(OC(F)(F)F)cc32)c2ccc(Cl)cc2OCCCC(=O)O)cc(-n2cncn2)c1 (racemic) [Compound 13, 4-(5-chloro-2-(1-((3-methoxy-5-(1H-1,2,4-triazol-1-yl)phenyl)amino)-2-oxo-2-(6-(trifluoromethoxy)indolin-1-yl)ethyl)phenoxy)butanoic acid]	0.23	11000	–	–
COc1cc(NC(C(=O)N2CCc3ccc(OC(F)(F)F)cc32)c2ccc(F)cc2OCCO)cc(-n2cncn2)c1 (single isomer, unassigned) [Compound 3A]	–	11000	520	–
COc1cc(NC(C(=O)N2CCc3ccc(OC(F)(F)F)cc32)c2ccc(Cl)cc2OCCC(C)(C)C(=O)O)cc(-n2cncn2)c1 (single isomer, unassigned) [Compound 14A]	–	9100	420	–
COc1cc(NC(C(=O)N2CCc3cc(F)c(C(F)(F)F)cc32)c2ccc(Cl)cc2OCCO)cc(-n2cncn2)c1 (single isomer, unassigned) [Compound 7A]	–	11000	430	–
COc1cc(NC(C(=O)N2CCc3c(C)cc(OC(F)(F)F)cc32)c2ccc(Cl)cc2OCCO)cc(-n2cncn2)c1 (single isomer, unassigned) [Compound 10A]	–	10000	63	–
COc1cc(NC(C(=O)N2CCc3ccc(C(F)(F)F)cc32)c2ccc(Cl)cc2OCCO)cc(-n2cncn2)c1 (single isomer, unassigned) [Compound 4A]	–	7800	1200	–
COc1cc(NC(C(=O)N2CCc3cc(OC)c(C(F)(F)F)cc32)c2ccc(Cl)cc2OCCO)cc(-n2cncn2)c1 (single isomer, unassigned) [Compound 5A]	–	11000	42	–
COc1cc(NC(C(=O)N2CCc3cc(OC)c(OC(F)(F)F)cc32)c2ccc(Cl)cc2OCCO)cc(-n2cncn2)c1 (racemic) [Compound 8, 2-(4-chloro-2-(2-hydroxyethoxy)phenyl)-2-((3-methoxy-5-(1H-1,2,4-triazol-1-yl)phenyl)amino)-1-(5-methoxy-6-(trifluoromethoxy)indolin-1-yl)ethanone]	2.1	9500	–	–
COc1cc(NC(C(=O)N2CCc3cc(OC)c(C(F)(F)F)cc32)c2ccc(Cl)cc2OCCO)cc(-n2cncn2)c1 (racemic) [Compound 5, 2-(4-chloro-2-(2-hydroxyethoxy)phenyl)-2-((3-methoxy-5-(1H-1,2,4-triazol-1-yl)phenyl)amino)-1-(5-methoxy-6-(trifluoromethyl)indolin-1-yl)ethanone]	0.82	11000	–	–
COc1cc(NC(C(=O)N2CCc3ccc(C(F)(F)F)cc32)c2ccc(Cl)cc2OCCCC(=O)O)cc(-n2cncn2)c1 (single isomer, unassigned) [Compound 11A]	–	11000	45	–
COc1cc(NC(C(=O)N2CCc3cc(F)c(OC(F)(F)F)cc32)c2ccc(Cl)cc2OCCCC(=O)O)cc(-n2cncn2)c1 (racemic) [Compound 15, 4-(5-chloro-2-(2-(5-fluoro-6-(trifluoromethoxy)indolin-1-yl)-1-((3-methoxy-5-(1H-1,2,4-triazol-1-yl)phenyl)amino)-2-oxoethyl)phenoxy)butanoic acid]	0.22	11000	–	–
COc1cc(NC(C(=O)N2CCc3cc(F)c(OC(F)(F)F)cc32)c2ccc(Cl)cc2OCCCC(=O)O)cc(-n2cncn2)c1 (single isomer, unassigned) [Compound 15A]	–	10000	5.3	–
COc1cc(NC(C(=O)N2CCc3ccc(OC(F)(F)F)cc32)c2ccc(Cl)cc2OCCC(C)(C)C(=O)O)cc(-n2cncn2)c1 (racemic) [Compound 14, 4-(5-chloro-2-(1-((3-methoxy-5-(1H-1,2,4-triazol-1-yl)phenyl)amino)-2-oxo-2-(6-(trifluoromethoxy)indolin-1-yl)ethyl)phenoxy)-2,2-dimethylbutanoic acid]	0.41	10000	–	–
COc1cc(NC(C(=O)N2CCc3cc(OC)c(C(F)(F)F)cc32)c2ccc(Cl)cc2OCCCC(=O)O)cc(-n2cncn2)c1 (racemic) [Compound 12, 4-(5-chloro-2-(1-((3-methoxy-5-(1H-1,2,4-triazol-1-yl)phenyl)amino)-2-(5-methoxy-6-(trifluoromethyl)indolin-1-yl)-2-oxoethyl)phenoxy)butanoic acid]	2.2	13000	–	–
COc1cc(NC(C(=O)N2CCc3ccc(C(F)(F)F)cc32)c2ccc(F)cc2OCCO)cc(-n2cncn2)c1 (single isomer, unassigned) [Compound 1A]	–	7700	1000	–

Source: patent publication US11083707B2, “Substituted indoline derivatives as dengue viral replication inhibitors” (JANSSEN PHARMACEUTICALS, INC., priority 2017, dated 2021)
